According to ChEMBL document CHEMBL4665919, “Novel Tricyclic Pyroglutamide Derivatives as Potent RORγt Inverse Agonists Identified using a Virtual Screening Approach” (ACS Med Chem Lett, 2020):
Blank lines part the entries; values can stand above or below the compound they belong to.

Key:
[1] = Half life in human liver microsomes; format: ADME, Microsome
[2] = Half life in mouse liver microsomes; format: ADME, Microsome
[3] = Half life in rat liver microsomes; format: ADME, Microsome
[4] = (§1) Drug concentration in IL-23 induced acanthosis in C57BL/6 mouse measured as (3R,5S)-3-Fluoro-5-((3aR,9bR)-9b-((4-fluorophenyl)sulfonyl)-7-(perfluoropropan-2-yl)-2,3,3a,4,5,9b-hexahydro-1H-benzo[e]indole-3-carbonyl)-1-(2-hydroxy-2-methylpropyl)pyrrolidin-2-one at 5 mg/kg, po qd administered for 2 hrs before IL-23 injection measured on day 1; format: ADME, organism-based; conditions: in vivo, 24 h, time 1 day, read-out: Ct
[5] = Ratio of IC90 for inverse agonist activity at RORgammat in human whole blood assessed as IL-17 production by ELISA to drug concentration in IL-23 induced acanthosis in Th17 mouse measured as (3R,5S)-3-Fluoro-5-((3aR,9bR)-9b-((4-fluorophenyl)sulfonyl)-7-(perfluoropropan-2-yl)-2,3,3a,4,5,9b-hexahydro-1H-benzo[e]indole-3-carbonyl)-1-(2-hydroxy-2-methylpropyl)pyrrolidin-2-one at 5 mg/kg, po qd administered for 9 days 2 hrs before IL-23 injection
[6] = as §1, with “AUC in” for “Drug concentration in”, “acanthosis” for “acanthosis in”, “mouse model of psoriasis” for “mouse”, “at 15” for “at 5”; format: ADME, organism-based; parameters: time 1 day, dose 15 mg/kg; conditions: in vivo, 24 h
Mus musculus [7] = assay: (§2) Suppression of ear thickness in IL-23 induced acanthosis C57BL/6 mouse model of psoriasis measured as (3R,5S)-3-Fluoro-5-((3aR,9bR)-9b-((4-fluorophenyl)sulfonyl)-7-(perfluoropropan-2-yl)-2,3,3a,4,5,9b-hexahydro-1H-benzo[e]indole-3-carbonyl)-1-(2-hydroxy-2-methylpropyl)pyrrolidin-2-one at 15 mg/kg, po qd for 9 days 2 hrs before IL-23 injection measured every other day relative to IL-23 antibody treatment; format: functional; conditions: C57BL/6, po, 216 h, time 9 day
[8] = Ratio of IC90 for inverse agonist activity at RORgammat in human whole blood assessed as IL-17 production by ELISA to drug concentration in IL-23 induced acanthosis in […] mouse measured as (3R,5S)-3-Fluoro-5-((3aR,9bR)-9b-((4-fluorophenyl)sulfonyl)-7-(perfluoropropan-2-yl)-2,3,3a,4,5,9b-hexahydro-1H-benzo[e]indole-3-carbonyl)-1-(2-hydroxy-2-methylpropyl)pyrrolidin-2-one at 45 mg/kg, po qd …
Mus musculus [9] = assay: as §2, with “45” for “15”, “qd administered” for “qd”; format: functional; conditions: C57BL/6, po, 216 h, time 9 day
[10] = as §1, with “administered for 9 days 2 hrs” for “administered for 2 hrs”, “IL-23 injection” for “IL-23 injection measured on day 1”; format: ADME, organism-based; conditions: in vivo, 216 h, time 9 day, read-out: Ct
[11] = as §2, with “Toxicity” for “Suppression of ear thickness”, “psoriasis assessed as change in body weight” for “psoriasis”, “5 to 45” for “15”, “qd administered” for “qd”, “day” for “day relative to IL-23 antibody treatment”; format: organism-based; conditions: in vivo, 0.15 h, dose 5-45 mg/kg, time 9 min
[12] = as §2, with “Cmax” for “Suppression of ear thickness”, “45” for “15”, “qd administered” for “qd”, “injection” for “injection measured every other day relative to IL-23 antibody treatment”; format: ADME, organism-based; parameters: route oral, dose 45 mg/kg, time 9 day; conditions: in vivo, 216 h
[13] = (§3) Drug concentration in IL-23 induced acanthosis in C57BL/6 mouse measured as (3R,5S)-3-Fluoro-5-((3aR,9bR)-9b-((4-fluorophenyl)sulfonyl)-7-(perfluoropropan-2-yl)-2,3,3a,4,5,9b-hexahydro-1H-benzo[e]indole-3-carbonyl)-1-(2-hydroxy-2-methylpropyl)pyrrolidin-2-one at 15 mg/kg, po qd administered for 9 days 2 hrs before IL-23 injection; format: ADME, organism-based; conditions: in vivo, 216 h, time 9 day, read-out: Ct
[14] = as §3, with “AUC” for “Drug concentration”, “acanthosis” for “acanthosis in”, “mouse model of psoriasis” for “mouse”, “5” for “15”; format: ADME, organism-based; parameters: dose 5 mg/kg, time 9 day; conditions: in vivo, 216 h
[15] = as §3, with “Cmax” for “Drug concentration”, “acanthosis” for “acanthosis in”, “mouse model of psoriasis” for “mouse”; format: ADME, organism-based; parameters: route oral, dose 15 mg/kg, time 9 day; conditions: in vivo, 216 h
[16] = as §1, with “at 15” for “at 5”; format: ADME, organism-based; conditions: in vivo, 24 h, time 1 day, read-out: Ct
[17] = as §1, with “AUC” for “Drug concentration”, “acanthosis” for “acanthosis in”, “mouse model of psoriasis” for “mouse”; format: ADME, organism-based; parameters: time 1 day, dose 5 mg/kg; conditions: in vivo, 24 h
[18] = as §3, with “Cmax” for “Drug concentration”, “acanthosis” for “acanthosis in”, “mouse model of psoriasis” for “mouse”, “5” for “15”; format: ADME, organism-based; parameters: route oral, dose 5 mg/kg, time 9 day; conditions: in vivo, 216 h
[19] = as §1, with “at 45” for “at 5”, “day 11” for “day 1”; format: ADME, organism-based; conditions: in vivo, 24 h, time 1 day, read-out: Ct
[20] = Solubility of the compound at pH 6.7; format: physicochemical; conditions: buffer
[21] = as §1, with “AUC in” for “Drug concentration in”, “acanthosis” for “acanthosis in”, “mouse model of psoriasis” for “mouse”, “at 45” for “at 5”; format: ADME, organism-based; parameters: time 1 day, dose 45 mg/kg; conditions: in vivo, 24 h
[22] = as §3, with “45” for “15”; format: ADME, organism-based; conditions: in vivo, 216 h, time 9 day, read-out: Ct
[23] = as §3, with “AUC” for “Drug concentration”, “acanthosis” for “acanthosis in”, “mouse model of psoriasis” for “mouse”, “45” for “15”; format: ADME, organism-based; parameters: time 9 day, dose 45 mg/kg; conditions: in vivo, 216 h
[24] = Ratio of IC90 for inverse agonist activity at RORgammat in human whole blood assessed as IL-17 production by ELISA to drug concentration in IL-23 induced acanthosis in Th17 mouse measured as (3R,5S)-3-Fluoro-5-((3aR,9bR)-9b-((4-fluorophenyl)sulfonyl)-7-(perfluoropropan-2-yl)-2,3,3a,4,5,9b-hexahydro-1H-benzo[e]indole-3-carbonyl)-1-(2-hydroxy-2-methylpropyl)pyrrolidin-2-one at 15 mg/kg, po qd …
[25] = as §3, with “AUC” for “Drug concentration”, “acanthosis” for “acanthosis in”, “mouse model of psoriasis” for “mouse”; format: ADME, organism-based; parameters: time 9 day, dose 15 mg/kg; conditions: in vivo, 216 h
[26] = target: T1, Nuclear receptor ROR-gamma (Homo sapiens, UniProt P51449); assay: Inverse agonist activity at RORgammat in human whole blood assessed as IL-17 production by ELISA; format: tissue-based
T1 sequence (P51449 whole entry): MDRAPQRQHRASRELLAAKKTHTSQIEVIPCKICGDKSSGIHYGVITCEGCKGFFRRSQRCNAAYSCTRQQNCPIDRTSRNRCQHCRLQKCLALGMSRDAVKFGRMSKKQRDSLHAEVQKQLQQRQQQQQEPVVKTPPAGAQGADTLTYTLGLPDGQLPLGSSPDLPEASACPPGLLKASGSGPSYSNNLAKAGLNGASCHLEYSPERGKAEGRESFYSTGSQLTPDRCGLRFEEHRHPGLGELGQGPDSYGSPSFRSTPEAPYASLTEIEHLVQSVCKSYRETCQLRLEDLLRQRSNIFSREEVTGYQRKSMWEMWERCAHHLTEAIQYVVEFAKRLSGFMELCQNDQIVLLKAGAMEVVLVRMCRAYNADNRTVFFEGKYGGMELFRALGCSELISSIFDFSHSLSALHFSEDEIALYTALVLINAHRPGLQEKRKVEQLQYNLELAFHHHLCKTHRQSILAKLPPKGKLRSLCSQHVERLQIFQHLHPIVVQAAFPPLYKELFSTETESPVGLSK

[27] = target: T1, Nuclear receptor ROR-gamma; assay: Inverse agonist activity at Gal4-fused RORgammat LBD (unknown origin) by reporter gene assay

- half-life [1]: > 120 min
- half-life [2]: 85 min
- half-life [3]: 48 min
SMILES: [2H]C([2H])([2H])N1C(=O)[C@@H](F)C[C@H]1C(=O)N1CC[C@@]2(S(=O)(=O)c3ccc(F)cc3)c3ccc(C(F)(C(F)(F)F)C(F)(F)F)cc3CC[C@@H]12

- half-life [1]: 50 min
- half-life [2]: 52 min
- half-life [3]: 45 min
SMILES: CC(C)N1C(=O)[C@H](F)C[C@H]1C(=O)N1CC[C@@]2(S(=O)(=O)c3ccc(F)cc3)c3ccc(C(F)(C(F)(F)F)C(F)(F)F)cc3CC[C@@H]12

- concentration [4]: 210 nM
- AUC [6]: 30.9 µM·h
- concentration [10]: 150 nM
- Cmax [12]: 8340 nM
- concentration [13]: 1360 nM
- AUC [14]: 9 µM·h
- Cmax [15]: 2580 nM
- concentration [16]: 480 nM
- AUC [17]: 13.9 µM·h
- Cmax [18]: 650 nM
- concentration [19]: 910 nM
- solubility [20]: ≥ 4700 µg/mL
- AUC [21]: 274.3 µM·h
- concentration [22]: 5820 nM
- AUC [23]: 162.9 µM·h
- AUC [25]: 45.2 µM·h
SMILES: CC(C)(CN1C(=O)[C@H](F)C[C@H]1C(=O)N1CC[C@@]2(S(=O)(=O)c3ccc(F)cc3)c3ccc(C(F)(C(F)(F)F)C(F)(F)F)cc3CC[C@@H]12)OP(=O)(O)O
- Ratio [5]: 0.4
- inhibition in vivo at 15 mg/kg (Mus musculus [7]): 38%
- Ratio [8]: 13.9
- inhibition in vivo at 45 mg/kg (Mus musculus [9]): 67%
- Activity [11]: Non-Toxic
- Ratio [24]: 3.2

- half-life [1]: > 120 min
- half-life [2]: 94 min
- half-life [3]: 43 min
SMILES: CO[C@H]1C[C@@H](C(=O)N2CC[C@@]3(S(=O)(=O)c4ccc(F)cc4)c4ccc(C(F)(C(F)(F)F)C(F)(F)F)cc4CC[C@@H]23)N(C)C1=O

- half-life [1]: 24 min
- half-life [2]: 29 min
- EC50 [26]: 57 nM
- half-life [3]: 35 min
- EC50 [27]: 7 nM
SMILES: O=C1[C@H](F)C[C@@H](C(=O)N2CC[C@@]3(S(=O)(=O)c4ccc(F)cc4)c4ccc(C(F)(C(F)(F)F)C(F)(F)F)cc4CC[C@@H]23)N1Cc1ccc(F)cc1

- half-life [1]: > 120 min
- half-life [2]: 79 min
- EC50 [26]: 30 nM
- half-life [3]: 45 min
- EC50 [27]: 18 nM
SMILES: N#CCCN1C(=O)[C@H](F)C[C@H]1C(=O)N1CC[C@@]2(S(=O)(=O)c3ccc(F)cc3)c3ccc(C(F)(C(F)(F)F)C(F)(F)F)cc3CC[C@@H]12

- EC50 [27]: 1500 nM
SMILES: O=C(O)CN1C(=O)[C@H](F)C[C@H]1C(=O)N1CC[C@@]2(S(=O)(=O)c3ccc(F)cc3)c3ccc(C(F)(C(F)(F)F)C(F)(F)F)cc3CC[C@@H]12

- half-life [1]: 87 min
- half-life [2]: 116 min
- half-life [3]: > 120 min
SMILES: CN1C(=O)CC[C@H]1C(=O)N1CC[C@@]2(S(=O)(=O)c3ccc(F)cc3)c3ccc(C(F)(C(F)(F)F)C(F)(F)F)cc3CC[C@@H]12

- half-life [1]: 58 min
- half-life [2]: 74 min
- half-life [3]: 61 min
- EC50 [27]: 30 nM
SMILES: N#Cc1ccc(CN2C(=O)[C@H](F)C[C@H]2C(=O)N2CC[C@@]3(S(=O)(=O)c4ccc(F)cc4)c4ccc(C(F)(C(F)(F)F)C(F)(F)F)cc4CC[C@@H]23)cc1

- half-life [1]: > 120 min
- half-life [2]: > 120 min
- half-life [3]: > 120 min
SMILES: [2H]C([2H])([2H])N1C(=O)[C@H](F)C[C@H]1C(=O)N1CC[C@@]2(S(=O)(=O)c3ccc(F)cc3)c3ccc(C(F)(C(F)(F)F)C(F)(F)F)cc3CC[C@@H]12

- half-life [1]: 57 min
- half-life [2]: 88 min
- half-life [3]: 58 min
SMILES: [2H]C([2H])([2H])N1C(=O)C(F)(F)C[C@H]1C(=O)N1CC[C@@]2(S(=O)(=O)c3ccc(F)cc3)c3ccc(C(F)(C(F)(F)F)C(F)(F)F)cc3CC[C@@H]12

- half-life [1]: > 120 min
- half-life [2]: 60 min
- half-life [3]: 36 min
SMILES: O=C1[C@H](F)C[C@@H](C(=O)N2CC[C@@]3(S(=O)(=O)c4ccc(F)cc4)c4ccc(C(F)(C(F)(F)F)C(F)(F)F)cc4CC[C@@H]23)N1CCO

- half-life [1]: 27 min
- half-life [2]: 25 min
- half-life [3]: 10 min
SMILES: CN1C(=O)[C@@H](O)C[C@H]1C(=O)N1CC[C@@]2(S(=O)(=O)c3ccc(F)cc3)c3ccc(C(F)(C(F)(F)F)C(F)(F)F)cc3CC[C@@H]12

- half-life [1]: > 120 min
- half-life [2]: 75 min
- half-life [3]: 55 min
SMILES: CN1C(=O)[C@H](F)C[C@H]1C(=O)N1CC[C@@]2(S(=O)(=O)c3ccc(F)cc3)c3ccc(C(F)(C(F)(F)F)C(F)(F)F)cc3CC[C@@H]12
